28 substances from patent publication US20240384268A1, “Oligonucleotides” (Hudson Institute of Medical Research, priority 2021, published 2024) can be followed below.

In the oligonucleotide strings, read from the 5' end, every base follows the letter of its sugar. An asterisk marks phosphorothioate; unmarked linkages are phosphodiester. Other units and linkages are bracketed, terminal groups are in braces. A string of capitals states the bases alone. d = 2'-deoxy (DNA); m = 2'-O-methyl

The target in one series is T1, TLR3 (Homo sapiens, UniProt O15455).
T1 sequence (O15455 24-904): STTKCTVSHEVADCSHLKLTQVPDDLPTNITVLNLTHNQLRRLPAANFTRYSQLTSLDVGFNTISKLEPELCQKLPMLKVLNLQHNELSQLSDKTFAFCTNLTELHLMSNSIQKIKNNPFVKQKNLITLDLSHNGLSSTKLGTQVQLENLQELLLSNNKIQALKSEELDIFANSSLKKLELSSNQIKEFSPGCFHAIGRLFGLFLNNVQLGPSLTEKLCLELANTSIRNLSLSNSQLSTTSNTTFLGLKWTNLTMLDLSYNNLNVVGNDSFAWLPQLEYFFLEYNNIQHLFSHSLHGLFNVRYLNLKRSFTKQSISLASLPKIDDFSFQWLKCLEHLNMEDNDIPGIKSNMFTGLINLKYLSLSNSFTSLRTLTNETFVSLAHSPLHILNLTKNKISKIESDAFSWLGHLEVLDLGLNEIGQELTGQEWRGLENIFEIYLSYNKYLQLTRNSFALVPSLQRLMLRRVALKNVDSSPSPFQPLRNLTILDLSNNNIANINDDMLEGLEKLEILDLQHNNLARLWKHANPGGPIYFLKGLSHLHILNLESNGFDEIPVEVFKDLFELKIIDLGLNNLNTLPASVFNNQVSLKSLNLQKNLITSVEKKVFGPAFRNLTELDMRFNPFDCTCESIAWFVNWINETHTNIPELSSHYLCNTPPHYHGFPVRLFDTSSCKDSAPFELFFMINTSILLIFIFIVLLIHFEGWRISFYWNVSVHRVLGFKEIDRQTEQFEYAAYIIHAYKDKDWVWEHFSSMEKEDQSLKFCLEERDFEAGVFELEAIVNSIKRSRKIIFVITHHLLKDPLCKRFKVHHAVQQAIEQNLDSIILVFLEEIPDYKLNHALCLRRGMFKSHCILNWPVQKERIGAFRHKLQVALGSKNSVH
The series is described as follows: HEK-TLR3 NF-κB-luciferase reporter, poly(I:C) stimulation. The conditions noted are these: 500 nM ASOs/ODNs, poly(I:C) 1 μg/ml. Further details: host or cells: HEK-Blue hTLR3 (HEK293). It is filed as cell-based. (A reporter such as luciferase makes a cellular process visible.)
“T*T*A* G*G*G* T*T*A* G*G*G* T*T*A* G*G*G* T*T*A* G*G*G [A151, reference compound]”: the “inhibition of polyI:C sensing by TLR3 at 500 nM (in words)” value is “only partially reduced polyL:C-dependent TLR3 activation”.

Still in this series, the particulars now being: 3-mers DNA PS 45 min, then 500 ng/ml polyI:C overnight, NF-κB-luciferase normalised to polyI:C only (Ligand 1.000, NT 0.000).
“dA*dA*dA (DNA AAA; listed as DNA, chemistry not fully specified)”: the “TLR3 2uM” value is listed as 1.065.

“dA*dA*dC (DNA AAC; listed as DNA, chemistry not fully specified)”: the “TLR3 2uM” value came to 0.861.

For “dA*dA*dG (DNA AAG; listed as DNA, chemistry not fully specified)”, the “TLR3 2uM” value amounted to 0.825.

As to “dA*dC*dA (DNA ACA; listed as RNA, chemistry not fully specified)”, the “TLR3 2uM” value is 0.832.

With “dA*dG*dA (DNA AGA; listed as DNA, chemistry not fully specified)”, the “TLR3 2uM” value worked out at 0.849.

Take “dA*dG*dC (DNA AGC; listed as DNA, chemistry not fully specified)”: the “TLR3 2uM” value amounted to 0.854.

With “dC*dA*dA (CAA; listed as DNA, chemistry not fully specified)”, the “TLR3 2uM” value is given as 0.909.

In the case of “dC*dA*dC (CAC; listed as RNA, chemistry not fully specified)”, the “TLR3 2uM” value is reported as 0.796.

For “dC*dC*dA (CCA; listed as DNA, chemistry not fully specified)”, the “TLR3 2uM” value is reported as 0.763.

In the case of “dC*dC*dC (CCC; listed as DNA, chemistry not fully specified)”, the “TLR3 2uM” value was found to be 0.811.

As to “dC*dC*dG (CCG; listed as DNA, chemistry not fully specified)”, the “TLR3 2uM” value came out at 0.867.

For the substance “dC*dG*dA (CGA; listed as DNA, chemistry not fully specified)”, the “TLR3 2uM” value turned out to be 0.823.

Take dG*dC*dC [GCC]: the “TLR3 2uM” value was found to be 0.895.

Turning to dG*dC*dG [GCG], the “TLR3 2uM” value was determined as 0.867.

Staying with this series, now noted: 3mer 2'OMe ASO at 2 uM, value relative to Ligand only = 1.000, NT = 0.000.
For the substance UUU (mU*mU*mU), the “TLR3 2uM” value came to 0.970.

As to “dA*dA*dA (DNA AAA; listed as DNA, chemistry not fully specified)”, the “TLR3 2uM” value was 1.026.

Consider “dA*dA*dC (DNA AAC; listed as DNA, chemistry not fully specified)”, for which the “TLR3 2uM” value amounted to 0.901.

For “dA*dA*dG (DNA AAG; listed as DNA, chemistry not fully specified)”, the “TLR3 2uM” value came out at 0.616.

Turning to “dA*dC*dA (DNA ACA; listed as RNA, chemistry not fully specified)”, the “TLR3 2uM” value came out at 1.053.

With “dA*dG*dA (DNA AGA; listed as DNA, chemistry not fully specified)”, the “TLR3 2uM” value was found to be 0.829.

“dA*dG*dC (DNA AGC; listed as DNA, chemistry not fully specified)”: the “TLR3 2uM” value stood at 1.019.

On to “dC*dA*dA (CAA; listed as DNA, chemistry not fully specified)”, for which the “TLR3 2uM” value was 0.771.

For “dC*dA*dC (CAC; listed as RNA, chemistry not fully specified)”, the “TLR3 2uM” value worked out at 0.841.

On to “dC*dC*dA (CCA; listed as DNA, chemistry not fully specified)”, for which the “TLR3 2uM” value worked out at 0.917.

For the substance “dC*dC*dC (CCC; listed as DNA, chemistry not fully specified)”, the “TLR3 2uM” value was determined as 0.933.

On to “dC*dC*dG (CCG; listed as DNA, chemistry not fully specified)”, for which the “TLR3 2uM” value was 0.770.

On to “dC*dG*dA (CGA; listed as DNA, chemistry not fully specified)”, for which the “TLR3 2uM” value was 0.780.

With dG*dC*dC [GCC], the “TLR3 2uM” value is 0.884.

For the substance dG*dC*dG [GCG], the “TLR3 2uM” value is recorded as 0.830.

In the case of “mAmUmC (mA*mU*mC) [AUC, 3-mer 2′OMe PS oligo]”, the “TLR3 2uM” value is listed as 0.768.

For the substance mCmUmU (antisense mC*mU*mU) [660-3], the “TLR3 2uM” value stood at 0.846.

In the case of “mGmAmU (mG*mA*mU) [GAU, 3-mer 2′OMe PS oligo]”, the “TLR3 2uM” value is given as 0.771.

On to “mGmUmA (GUA; all 2'-O-methyl, backbone not given here; further chemistry not fully specified) [shortMut1-3b]”, for which the “TLR3 2uM” value worked out at 0.839.

“mGmUmC (mG*mU*mC) [GUC, 3-mer 2′OMe PS oligo]”: the “TLR3 2uM” value came to 0.752.

On to “mGmUmG (mG*mU*mG) [GUG, 3-mer 2′OMe PS oligo]”, for which the “TLR3 2uM” value is on record as 0.786.

Regarding “mGmUmU (mG*mU*mU) [GUU, 3-mer 2′OMe PS oligo]”, the “TLR3 2uM” value worked out at 0.825.

For “mUmCmA (mU*mC*mA) [UCA, 3-mer 2′OMe PS oligo]”, the “TLR3 2uM” value was determined as 0.765.

With mUmCmG (antisense mU*mC*mG) [660-3b], the “TLR3 2uM” value was 0.850.

As for “mUmGmA (mU*mG*mA) [UGA, 3-mer 2′OMe PS oligo]”, the “TLR3 2uM” value is listed as 0.806.

As to “mUmGmG (mU*mG*mG) [UGG, 3-mer 2′OMe PS oligo]”, the “TLR3 2uM” value was 0.764.

The same series, now with this note: 30-50 min before 0.5 μg/ml pIC overnight, read-out: IC50 (polyI:C sensing by TLR3).
Take “T*T*A* G*G*G* T*T*A* G*G*G* T*T*A* G*G*G* T*T*A* G*G*G [A151, reference compound]”: the IC50 (usually the midpoint of a concentration-inhibition curve) was greater than 750 nM.

As to “mG*mC*mG*mG*mU*A*T*C*C*A*T*G*T*C*C*mC*mA*mG*mG*mC (mG*mC*mG*mG*mU*dA*dT*dC*dC*dA*dT*dG*dT*dC*dC*mC*mA*mG*mG*mC; antisense) [C2-Mut1]”, the IC50 came to 62 nM.

For another series, the target named is cGAS (Homo sapiens, UniProt Q8N884). The series is described as follows: ISD70-driven IP-10 (and IFN-β) production in THP-1 cells, ELISA. It is filed as cell-based. Also noted: endogenous in cells; host or cells: THP-1 (undifferentiated). The conditions noted are these: THP-1; 125 nM oligonucleotide 6 h, ISD70 overnight.
Sequence of cGAS (Q8N884 whole entry): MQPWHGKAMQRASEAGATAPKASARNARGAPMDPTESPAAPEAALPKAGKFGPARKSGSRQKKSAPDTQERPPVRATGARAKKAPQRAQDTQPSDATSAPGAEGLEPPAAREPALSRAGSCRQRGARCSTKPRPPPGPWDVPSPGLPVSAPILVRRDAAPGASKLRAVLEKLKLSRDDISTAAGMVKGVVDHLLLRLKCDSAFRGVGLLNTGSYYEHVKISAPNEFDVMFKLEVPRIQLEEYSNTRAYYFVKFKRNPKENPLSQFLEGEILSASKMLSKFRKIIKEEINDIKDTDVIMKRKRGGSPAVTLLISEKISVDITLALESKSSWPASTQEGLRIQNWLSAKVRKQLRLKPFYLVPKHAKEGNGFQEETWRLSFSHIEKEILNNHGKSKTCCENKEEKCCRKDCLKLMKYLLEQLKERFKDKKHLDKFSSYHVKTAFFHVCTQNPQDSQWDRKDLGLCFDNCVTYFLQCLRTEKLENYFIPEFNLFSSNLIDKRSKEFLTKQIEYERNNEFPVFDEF
“T*T*A* G*G*G* T*T*A* G*G*G* T*T*A* G*G*G* T*T*A* G*G*G [A151, reference compound]”: the “IFN-β production after ISD70 transfection: reduction” value is on record as roughly 50%.

Regarding “mG*mC*mG*mG*mU*A*T*C*C*A*T*G*T*C*C*mC*mA*mG*mG*mC (mG*mC*mG*mG*mU*dA*dT*dC*dC*dA*dT*dG*dT*dC*dC*mC*mA*mG*mG*mC; antisense) [C2-Mut1]”, the “IFN-β production after ISD70 transfection: reduction” value is recorded as “blocked”.

Staying with this series, now noted: THP-1; 2′OMe or PS oligos, 100-250 nM, pre-treatment as in figure legends; ISD70 2.5 μg/ml.
For “mG*mC*mG*mG*mU*A*T*C*C*A*T*G*T*C*C*mC*mA*mG*mG*mC (mG*mC*mG*mG*mU*dA*dT*dC*dC*dA*dT*dG*dT*dC*dC*mC*mA*mG*mG*mC; antisense) [C2-Mut1]”, the “inhibition of ISD70-driven IP-10 production (in words)” value is “most inhibitory sequence of ISD70 sensing”.

The same series, now with this note: THP-1; 6 h pre-treatment, ISD70 2.5 μg/ml overnight (FIG. 3A); listed as C2-Mutl; read-out: IC50 (IP-10 production after ISD70 transfection).
Take “mG*mC*mG*mG*mU*A*T*C*C*A*T*G*T*C*C*mC*mA*mG*mG*mC (mG*mC*mG*mG*mU*dA*dT*dC*dC*dA*dT*dG*dT*dC*dC*mC*mA*mG*mG*mC; antisense) [C2-Mut1]”: the IC50 was roughly 56 nM.

Staying with this series, now noted: THP-1; 6 h pre-treatment, ISD70 2.5 μg/ml overnight (FIG. 3A); read-out: IC50 (IP-10 production after ISD70 transfection).
In the case of “T*T*A* G*G*G* T*T*A* G*G*G* T*T*A* G*G*G* T*T*A* G*G*G [A151, reference compound]”, the IC50 was 165 nM.

For “mG*mC*mG*mG*mU*A*T*C*C*A*T*G*T*C*C*mC*mA*mG*mG*mC (mG*mC*mG*mG*mU*dA*dT*dC*dC*dA*dT*dG*dT*dC*dC*mC*mA*mG*mG*mC; antisense) [C2-Mut1]”, the 50% inhibitory concentration (IC50) amounted to 56 nM.
